Results published in patent US20250270246A1, “LINCOSAMIDES AND USES THEREOF” (President and Fellows of Harvard College, priority 2022, published 2025).
Counter-ions that a name gives are not always drawn. Like-named read-outs stand apart in the source and are kept apart here.

Assays:
Assay type in all cases: cell-based
[1] = tested on: E. coli HAV#040, LptD; assay: MIC by broth microdilution (CLSI); settings: Escherichia coli, 24 h, read-out: MIC E. coli HAV#040, LptD
Procedure, shortened: (§1)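 Cation-adjusted Mueller-Hinton medium, Chelex 100 ion-exchange treated where P. aeruginosa was tested. Twofold series 64 down to 0.06 μg/mL, 2.5% DMSO final, 5×10^5 CFU/mL inoculum, 24 h incubation; endpoint is no visible growth.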

[2] = tested on: S. aureus ATCC 29213 (HAV#001); assay: MIC by broth microdilution (CLSI); settings: for MIC: Staphylococcus aureus, ATCC29213, 24 h, read-out: MIC S. aureus ATCC 29213
Procedure, shortened: as §1

[3] = tested on: E. coli HAV#038, ΔTolC; assay: MIC by broth microdilution (CLSI); settings: Escherichia coli, 24 h, read-out: MIC E. coli HAV#038, ΔTolC
Procedure, shortened: as §1

[4] = tested on: E. coli ATCC 25922 (HAV#006); assay: MIC by broth microdilution (CLSI); settings: for MIC: Escherichia coli, ATCC25922, 24 h, read-out: MIC E. coli ATCC 25922
Procedure, shortened: as §1

[5] = tested on: S. aureus HAV#202, ATCC 700699; assay: MIC by broth microdilution (CLSI); settings: Staphylococcus aureus, ATCC700699, CaMHB, 24 h incubation
Procedure, shortened: as §1

[6] = tested on: S. pyogenes HAV#004, ATCC 19615; assay: MIC by broth microdilution (CLSI); settings: Streptococcus pyogenes, ATCC19615, CaMHB, 24 h incubation
Procedure, shortened: as §1

[7] = tested on: S. aureus HAV#016, MRSA; assay: MIC by broth microdilution (CLSI); settings: Staphylococcus aureus, CaMHB, 24 h incubation
Procedure, shortened: as §1

[8] = tested on: S. pneumoniae HAV#003, ATCC 49619; assay: MIC by broth microdilution (CLSI); settings: Streptococcus pneumoniae, ATCC49619, CaMHB, 24 h incubation
Procedure, shortened: as §1

[9] = tested on: E. faecium HAV#318, VRE; clinical; assay: MIC by broth microdilution (CLSI); settings: Enterococcus faecium, CaMHB, 24 h incubation, read-out: MIC E. faecium HAV#318, VRE
Procedure, shortened: as §1

[10] = tested on: K. oxytoca HAV#450; Clinical; assay: MIC by broth microdilution (CLSI); settings: Klebsiella oxytoca, CaMHB, 24 h incubation, read-out: MIC K. oxytoca HAV#450
Procedure, shortened: as §1

[11] = tested on: S. aureus Clinical (cfr); assay: MIC by broth microdilution (CLSI); settings: for MIC: Staphylococcus aureus, 24 h, read-out: MIC S. aureus Clinical (cfr)
Procedure, shortened: as §1

[12] = tested on: E. coli lptD mutant; assay: MIC by broth microdilution (CLSI); settings: CaMHB, 24 h incubation; for MIC E. coli lptD mutant: lptD mutant / ΔlptD mutant, formate salt
Procedure, shortened: as §1

[13] = tested on: E. faecium JMI-990536; assay: MIC by broth microdilution (CLSI); settings: Enterococcus faecium, JMI990536, 24 h, read-out: MIC E. faecium JMI-990536
Procedure, shortened: as §1

[14] = tested on: H. influenzae ATCC 49247; assay: MIC by broth microdilution (CLSI); settings: Haemophilus influenzae, ATCC49247, 24 h, read-out: MIC H. influenzae ATCC 49247
Procedure, shortened: as §1

[15] = tested on: E. coli Clinical (armA); assay: MIC by broth microdilution (CLSI); settings: for MIC: Escherichia coli, 24 h, read-out: MIC E. coli Clinical (armA)
Procedure, shortened: as §1

[16] = tested on: A. baumannii ATCC 19606 (HAV#010); assay: MIC by broth microdilution (CLSI); settings: Acinetobacter baumannii, ATCC19606, 24 h, read-out: MIC A. baumannii ATCC 19606
Procedure, shortened: as §1

[17] = tested on: E. coli ΔtolC; assay: MIC by broth microdilution (CLSI); settings: CaMHB, 24 h incubation; for MIC: Escherichia coli, 24 h, read-out: MIC E. coli ΔtolC, ΔtolC
Procedure, shortened: as §1

[18] = tested on: K. pneumoniae JMI-991193; assay: MIC by broth microdilution (CLSI); settings: for MIC: Klebsiella pneumoniae, JMI991193, 24 h, read-out: MIC K. pneumoniae JMI-991193
Procedure, shortened: as §1

[19] = tested on: S. aureus MMX 3035; assay: MIC by broth microdilution (CLSI); settings: for MIC: Staphylococcus aureus, MMX3035, 24 h, read-out: MIC S. aureus MMX 3035
Procedure, shortened: as §1

[20] = tested on: E. faecalis ATCC 29212 (HAV#005); assay: MIC by broth microdilution (CLSI); settings: for MIC: Enterococcus faecalis, ATCC29212, 24 h, read-out: MIC E. faecalis ATCC 29212
Procedure, shortened: as §1

[21] = tested on: S. pneumoniae c-ermB; assay: MIC by broth microdilution (CLSI); settings: Streptococcus pneumoniae, 24 h, read-out: MIC S. pneumoniae c-ermB
Procedure, shortened: as §1

[22] = tested on: P. aeruginosa ATCC 27853 (HAV#009); assay: MIC by broth microdilution (CLSI), Chelex 100-treated broth; settings: HAV#009, ATCC 27853, CaMHB pre-treated with Chelex 100 ion exchange resin, 24 h
Method: Minimum inhibitory concentrations (MICs) were determined by the broth microdilution method following the Clinical and Laboratory Standards Institute (CLSI) guidelines. Test organisms consisted of standard reference strains from the American Type Culture Collection (ATCC; Manassa, VA, USA) and clinical isolates obtained from JMI Laboratories Inc. (North Liberty, IA, USA), Micromyx repository (MMX; Kalamazoo, MI, USA), and Massachusetts Eye and Ear Hospital (Boston, USA). Before the start of the MIC experiment, standard and test compound stock solutions were prepared in dimethyl sulfoxide (DMSO, Aldrich D2650) at a stock concentration of 2,560 μg/mL. The compound concentration range typically employed for each experiment was 64-0.06 μg/mL (2.5% final DMSO concentration). Iboxamycin was used as a comparator in all experiments. All bacterial strains were sub-cultured on blood agar plates (tryptic soy agar with 5% sheep blood, Hardy Diagnostics) and incubated overnight at 35° C. Organisms were suspended in cation-adjusted Mueller-Hinton broth (CaMHB, BD 212322) and optical density was adjusted to 0.5 McFarland standard. Suspensions were further diluted to obtain a final inoculum of 5×10^5 CFU/mL for broth microdilution experiments. The minimum concentration of compound required to inhibit visible bacterial growth after 24 h of incubation was recorded as the MIC in μg/mL. MICs for P. aeruginosa were recorded in cation-adjusted Mueller-Hinton broth which had been pre-treated with Chelex 100 ion exchange resin according to procedures reported in Ito et al. Antimicrob Agents Chemother (2016) 60 (12), 7396-7401.

[23] = HAV#001, ATCC 29213, CaMHB, 24 h incubation
[24] = HAV#006, ATCC 25922, CaMHB, 24 h incubation
[25] = Clinical (cfr), CaMHB, 24 h incubation
[26] = JMI-991193, CaMHB, 24 h incubation
[27] = MMX 3035, CaMHB, 24 h incubation

Compound	MIC [1] [µg/mL]	MIC [2, 23] [µg/mL]	MIC [3] [µg/mL]	MIC [4, 24] [µg/mL]	MIC [5] [µg/mL]	MIC [6] [µg/mL]	MIC [7] [µg/mL]	MIC [8] [µg/mL]	MIC [9] [µg/mL]	MIC [10] [µg/mL]	MIC [17] [µg/mL]	MIC E. coli lptD mutant [12] [µg/mL]	also measured
CC(C)C[C@@H]1CCO[C@@H]2[C@H](CN[C@@H]2C(=O)N[C@@H]2CC/C=C\CSC3OC2C(O)C(O)C3O)C1 (stereo partly drawn) [FSA1503055, (4S,5aS,8S,8aR)-4-isobutyl-N-((1R,8R,9R,10R,11S,12R,Z)-10,11,12-trihydroxy-13-oxa-2-thiabicyclo[7.3.1]tridec-4-en-8-yl) octahydro-2H-oxepino[2,3-c]pyrrole-8-carboxamide formate salt]	64	0.5	16	> 64	32	0.125	0.5	0.25	4	> 64			
CC(C)C[C@@H]1CCO[C@@H]2[C@H](CN[C@@H]2C(=O)N[C@@H]2CC/C=C/CS[C@H]3O[C@H]2[C@H](O)[C@H](O)[C@H]3O)C1 [FSA1503054, (4S,5aS,8S,8aR)-4-isobutyl-N-((1R,8R,9R,10R,11S,12R,E)-10,11,12-trihydroxy-13-oxa-2-thiabicyclo[7.3.1]tridec-4-en-8-yl) octahydro-2H-oxepino[2,3-c]pyrrole-8-carboxamide formate salt]	4	0.125	1	16	8	≤ 0.03	0.125	≤ 0.03	16	32			
CC(C)C[C@@H]1CCO[C@@H]2[C@H](CN[C@@H]2C(=O)N[C@@H]2CCCCCS[C@H]3O[C@H]2[C@H](O)[C@H](O)[C@H]3O)C1 [FSA1503058, (4S,5aS,8S,8aR)-4-isobutyl-N-((1R,8R,9R,10R,11S,12R)-10,11,12-trihydroxy-13-oxa-2-thiabicyclo[7.3.1]tridecan-8-yl) octahydro-2H-oxepino[2,3-c]pyrrole-8-carboxamide formate salt]	4	0.125	1	16	4	≤ 0.03	0.125	≤ 0.03	2	32			
CC(C)C[C@@H]1CCO[C@@H]2[C@H](CN[C@@H]2C(=O)N[C@H]2[C@H]3O[C@H](SC[C@H](F)C/C=C\[C@H]2C)[C@H](O)[C@@H](O)[C@H]3O)C1 [FSA1609033, (4S,5aS,8S,8aR)—N-((1R,4R,8R,9R,10R,11R,12S,13R,Z)-4-fluoro-11,12,13-trihydroxy-8-methyl-14-oxa-2-thiabicyclo[8.3.1]tetradec-6-en-9-yl)-4-isobutyloctahydro-2H-oxepino[2,3-c]pyrrole-8-carboxamide formate salt]											≤ 0.06		MIC [11]: 0.25 µg/mL; MIC ([12]; Escherichia coli, 24 h, read-out: MIC E. coli lptD mutant, lptD mutant / ΔlptD mutant): 0.125 µg/mL; MIC [2]: ≤ 0.06 µg/mL; MIC [13]: ≤ 0.06 µg/mL; MIC [4]: 1 µg/mL; MIC [14]: ≤ 0.06 µg/mL; MIC [15]: 4 µg/mL; MIC [16]: 1 µg/mL; MIC [18]: 2 µg/mL; MIC [19]: 0.25 µg/mL; MIC [20]: ≤ 0.06 µg/mL; MIC [21]: ≤ 0.03 µg/mL
CC(C)C[C@@H]1CCO[C@@H]2[C@H](CN[C@@H]2C(=O)N[C@@H]2C/C=C/C(CN3CCOCC3)CSC3OC2C(O)C(O)C3O)C1 (single isomer, unassigned) [FSA1608057, formate salt]		4		> 64							16	32	MIC [11, 25]: > 64 µg/mL; MIC ([15]; Clinical (armA), CaMHB, 24 h incubation): > 64 µg/mL; MIC [18, 26]: > 64 µg/mL; MIC [19, 27]: > 64 µg/mL; MIC ([20]; HAV#005, ATCC 29212, CaMHB, 24 h incubation): 2 µg/mL; MIC ([22]; Pseudomonas aeruginosa, ATCC27853): 32 µg/mL
CC(C)C[C@@H]1CCO[C@@H]2[C@H](CN[C@@H]2C(=O)N[C@@H]2C/C=C/C(CN3CCOCC3)CSC3OC2C(O)C(O)C3O)C1 (single isomer, unassigned) [FSA1608056, formate salt]												4	MIC S. aureus Clinical (cfr) [11, 25]: >64 µg/mL; MIC S. aureus ATCC 29213 [2, 23]: 4 µg/mL; MIC E. coli ATCC 25922 ([4]; HAV#006, ATCC 25922, CaMHB, 24 h incubation, formate salt): 64 µg/mL; MIC E. coli Clinical (armA) ([15]; Clinical (armA), CaMHB, 24 h incubation, formate salt): 64 µg/mL; MIC E. coli ΔtolC ([17]; ΔtolC): 16 µg/mL; MIC K. pneumoniae JMI-991193 [18, 26]: >64 µg/mL; MIC S. aureus MMX 3035 [19, 27]: >64 µg/mL; MIC E. faecalis ATCC 29212 ([20]; HAV#005, ATCC 29212, CaMHB, 24 h incubation, formate salt): 4 µg/mL; MIC P. aeruginosa ATCC 27853 [22]: 32 µg/mL
